From patent US5023359A, “Use of organic salts of copper for the treatment of honeybee's parasitic diseases” (priority 1990, dated 1991)
“Also recorded” adds a separate entry of the source.

What was measured:
honeybees [1] = assay: Appetency of the honeybees (consumption of syrup in small cases, batches of 100 honeybees); format: in vivo; conditions: for Appetency, absolute value / Appetency, 1/1 COPPER GLUCONATE: with pollen, mean ± SD; for Appetency, absolute value: pure sugar syrup 21.13±6.31; for Appetency, 1/1 COPPER GLUCONATE: 1/1 with copper gluconate; for Appetency, RELATIVE VALUES / PURE SUGAR SYRUP, AVERAGE / Appetency, RELATIVE VALUES / PURE SUGAR SYRUP, TEST 1 / Appetency, RELATIVE VALUES / PURE SUGAR SYRUP, TEST 2: relative to pure sugar syrup; for Appetency, RELATIVE VALUES / PURE SUGAR SYRUP, AVERAGE: average of tests; for Appetency, RELATIVE VALUES / PURE SUGAR SYRUP, TEST 1: test 1 (first concentration tested); for Appetency, RELATIVE VALUES / PURE SUGAR SYRUP, TEST 2: test 2 (second concentration tested)
Source text: It should be noted that the pollen has been made available to the honeybees in a sufficient amount inside the small cases, without being admixed to the syrup. The determinations have been performed every day and the length of the vertical bars of the diagrams hereabove, are proportional to the deviation of the observed results. They evidence a clearly higher […] case of the utilization of the compounds of this invention. […] The results of these tests are gathered in Table 7 hereinafter in which the figures correspond to measures performed on honeybees placed in small cases, having pollen to their disposal, and are means expressed in microliters per honeybee and per day for N countings.

honeybees [2] = assay: Phagoinhibitive action on food intake by the honeybees (small cases, 100 honeybees, syrup with copper sulphate); format: in vivo; conditions: FIG. 1; absorption in ml/bee/day vs g/l copper sulphate
Source text: The obtained results as shown under FIG. 1 have been obtained from studies carried out in the laboratory, on batches of 100 honeybees each, located in small coops called small cases (logettes) in the absence of queen bees. The feeding made available to the honeybees, is placed in a graduated tube which allows the measurement of the ingested amount every day. The experiments have been carried out simultaneously with various small cases each receiving for the feeding of the honeybees a syrup of sucrose at 2 kg for 1 l water (i.e. 66% weight/weight) containing variable amounts of copper sulphate.

Solubility in water = conditions: for water solubility: 20° C.
honeybees [3] = assay: Biological activity / metabolism of honeybees and productivity of hives; conditions: in vivo
honeybees [4] = assay: Acceptance of treated syrup by honeybees in full-size hives; format: in vivo; conditions: syrup of sucrose 66% w/w with copper gluconate
Trehalases = assay: Activity of trehalases in the hemolymph of honeybees after ingestion; format: in vivo; conditions: FIGS. 8A-8D, 9A-9B, 10B, listed as copper glyconate
Source text: (§1) These diagrams evidence the action of copper glyconate on the glycosemia of the honeybees after ingestion of increasing doses of this product.
(§2) FIG. 9A corresponds to experiments performed without administration of an inhibitor of trehalases
(§3) FIG. 9B is with administration of such an inhibitor.
(§4) FIG. 10A further evidences the variation of the glucosemia in the honeybees following the ingestion of copper glyconate.

honeybees [5] = conditions: in vivo
Method: The determination of the amounts of copper inside the bodies of the honeybees is performed through atomic absorption on samples of 5 honeybees after crushing and centrifuging them, and analysis of the supernatant liquid.

honeybees [6] = assay: Lethality / noxiousness for the honeybees; conditions: 6.75 l of syrup per hive, 0.02 to 0.5 g/l copper gluconate
Varroa jacobsoni = assay: Action against Varroa jacobsoni in full-size hives: counting of fallen/remaining Varroas, efficiency; format: in vivo; conditions: for FALL OF THE VARROAS: 4 hives, mean ± SD
Method: Each hive was provided at its lower part with a plastic plate coated with a consistent grease. Each day at the same time, the plate was discarded and the counting of the Varroas fallen on the plate, was carried out. A grid surmounting this plate avoid that the honeybees may spontaneously proceed with the discharge of the Varroas.
The results shown in FIG. 2 have been obtained following experiments performed at full size in hives containing from 20,000 to 50,000 honeybees.
2°--The efficiency of the treatment has been defined as the ratio between the number of Varroas subsiding in the various colonies of an apiary after treatment by solutions at various concentrations, and the number of Varroas contained in the control hives, these two figures have been measured after treatment with Amitraze.
This experiment has been carried out in a series of 14 hives and the result thereof are compiled in the Table 3 figuring herein after.
These experiments allow to obtain the results of Table 3 above, and were carried out in full size on a set of 14 hives.
Measurements of the falls of the Varroas have been performed, at first, every day then every three days starting from the initiation of the delivery of the syrup.
To this end, a plate coated with a consistent grease was arranged at the bottom of each hive and protected with a grid as above-mentioned, in order to allow the counting of the Varroas. The fall begins to be significative in relation to the control hives which have only been given pure sugar syrup, after absorption by the honeybees of 3 liters of syrup per hive in 10 days.
The counting of the remaining Varroas has been performed 2 days after the last delivery of syrup while submitting each hive to a treatment of shock by means of an acaricide (in these circumstances the marketed composition sold under the Tread Name AMITRAZE).
The averages and the standard deviations have been calculated for the number of performed measures corresponding to the number of hives, this figure being mentioned between hyphens following the figures of the third column in Table 3.

[7] = tested on: glycosemia in the honeybees; assay: Glycosemia / glucose in the hemolymph of honeybees after ingestion; format: in vivo; conditions: FIGS. 8A-8D, 9A-9B, 10A
Source text: as §1, §2, §3, §4

| Compound | Appetency, absolute value (honeybees [1]; 0,44 M.M.) | Appetency, absolute value (honeybees [1]; 1,1 M.M.) | Appetency, 1/1 COPPER GLUCONATE (honeybees [1]) | Appetency, RELATIVE VALUES / PURE SUGAR SYRUP, AVERAGE (honeybees [1]) | Appetency, RELATIVE VALUES / PURE SUGAR SYRUP, TEST 1 (honeybees [1]) | Appetency, RELATIVE VALUES / PURE SUGAR SYRUP, TEST 2 (honeybees [1]) | supplemental effects: production of honey, activity of cleaning the hives (honeybees [3]) | further results |
| --- | --- | --- | --- | --- | --- | --- | --- | --- |
| NCC(=O)[O-].NCC(=O)[O-].[Cu+2] [Copper glycinate] | 16,65 ± 5,01 microliters per honeybee and p | 15,5 ± 5,03 microliters per honeybee and p | 14,30 ± 3,52 microliters per honeybee and p | 75,85% | 78,0% | 73,7% | – | – |
| CC(O)C(=O)[O-].CC(O)C(=O)[O-].[Cu+2] (stereo not drawn) [Copper lactate] | 15,30 ± 4,24 microliters per honeybee and p | 15,60 ± 4,34 microliters per honeybee and p | 10,95 ± 3,54 microliters per honeybee and p | 73,6% | 72,4% | 73,8% | – | – |
| O=S(=O)([O-])[O-].[Cu+2] [copper sulphate] | – | – | – | – | – | – | – | phagoinhibitive (anorectic) action on food intake (honeybees [2]): phagoinhibitive action |
| COPPER CITRATE | 14,71 ± 4,25 microliters per honeybee and p | 12,67 ± 3,96 microliters per honeybee and p | 12,67 ± 3,96 microliters per honeybee and p | 64,75% | 69,5% | 60,0% | – | – |
| Copper 1-aspartate | – | – | – | 55,1% | 76,5% | 69,4% | – | Appetency, absolute value (honeybees [1]; 0,61 M.M.): 17,96 ± 7,20 microliters per honeybee and p; Appetency, absolute value (honeybees [1]; 1,54 M.M.): 14,68 ± 5,40 microliters per honeybee and p; Appetency, absolute value (honeybees [1]; 2,4 M.M.): 12,49 ± 5,11 microliters per honeybee and p |
| Copper 1-glutamate | 16,18 ± 4,66 microliters per honeybee and p | 16,64 ± 7,97 microliters per honeybee and p | 11,56 ± 6,32 microliters per honeybee and p | 77,6% | 76,5% | 78,7% | – | – |
| Copper Asparaginate | 15,48 ± 4,32 microliters per honeybee and p | 11,97 ± 3,34 microliters per honeybee and p | 12,21 ± 4,29 microliters per honeybee and p | 65,0% | 73,2% | 56,3% | – | water solubility (Solubility in water): 0,5% |
| Copper glucoheptonate | 15,68 ± 2,35 microliters per honeybee and p | 14,58 ± 3,16 microliters per honeybee and p | 14,90 ± 3,64 microliters per honeybee and p | 71,6% | 74,2% | 69,0% | A similar effect has been shown | water solubility (in words) (Solubility in water): very soluble |
| Copper gluconate | 22,3 ± 2,5 microliters per honeybee and p | 21,2 ± 2,6 microliters per honeybee and p | – | – | – | – | increases the production of honey | ingestion of the syrup by the honeybees in hives (honeybees [4]): The whole amount of syrup made available to the honeybees was absorbed every day; also recorded: totally ingested; activity / concentration of trehalases in the hemolymph (Trehalases): increase of the activity of the Trehalases; also recorded: increase in the concentration of glucose and trehalases in the hemolymph; appetency of the honeybees (in words) (honeybees [1]; sucrose syrup 66% w/w, FIGS. 7A-7C, comparison with copper sulphate): great appentency of the honeybees; storage of copper inside the body of the honeybees (honeybees [5]): does not incur any storage of copper inside the body of the honeybees; percentage of lethality in the honeybees compared to controls (honeybees [6]): no increase in the percentage of lethality in the honeybees; FALL OF THE VARROAS (Varroa jacobsoni; 0,2 g/l copper gluconate in syrup): 165,5 ± 84,1; FALL OF THE VARROAS (Varroa jacobsoni; 0,5 g/l copper gluconate in syrup): 207 ± 172; FALL OF THE VARROAS (Varroa jacobsoni; 1 g/l copper gluconate in syrup): 109 ± 141; destroying of the Varroas (in words) (Varroa jacobsoni; in vivo): efficient even at low doses; syrup absorbed per hive when fall of Varroas begins to be significative vs control hives (Varroa jacobsoni; per hive, in 10 days): 3 L; glycosemia / concentration of glucose in the hemolymph of the honeybees [7]: a momentaneous and significative increase of the glycosemia in the honeybees; glycosemia / concentration of glucose in the hemolymph of the honeybees ([7]; listed as copper glyconate): increase in the concentration of glucose; supplemental effects: production of honey, activity of cleaning the hives (honeybees [3]; listed as copper glyconate): increase in the activity of cleaning the hives |
| Copper gluconate/glucoheptonate | – | – | – | – | – | – | A similar effect has been shown | – |
| Copper gluconate/glutamate | – | – | – | – | – | – | A similar effect has been shown | – |
| Copper isoleucinate | – | – | – | 71,55% | 78,9% | 64,2% | – | Appetency, absolute value (honeybees [1]; 0,61 M.M.): 16,69 ± 5,03 microliters per honeybee and p; Appetency, absolute value (honeybees [1]; 1,54 M.M.): 13,57 ± 5,77 microliters per honeybee and p; Appetency, absolute value (honeybees [1]; 2,4 M.M.): 13,79 ± 5,73 microliters per honeybee and p; water solubility (Solubility in water): 1% |
| Copper leucinate | 15,83 ± 4,53 microliters per honeybee and p | 13,02 ± 2,42 microliters per honeybee and p | 13,02 ± 2,42 microliters per honeybee and p | 67,8% | 74,0% | 61,6% | – | water solubility (Solubility in water): 1% |
